From article PMC5642477, “Phosphodiesterase 10A is overexpressed in lung tumor cells and inhibitors selectively suppress growth by blocking β-catenin and MAPK signaling” (Oncotarget, 2017)
pIC50: −log10 of the molar value.

What was measured:
β-catenin in H1299 cells = experiment: Western blotting, β-catenin phosphorylation; format: cell-based, human; details: H1299, PQ10 2 µmol/L, 1 hour; KT5823 0.1 µmol/L, H89 1 µmol/L
Description: (§1) Whole cell extraction was performed according to a previously described method using cell lysing buffer (Cell Signaling) supplemented with 10 mmol/L NaF for protein phosphorylation studies. Cell lysates were separated by 4-12% gradient, 7% or 10% pre-casting PAGE (Novex/Invitrogen) followed by electrophoretic transfer to a nitrocellulose membrane. Western blotting procedures were performed using Chemiluminescence Reagent (Pierce) and visualized using Chemi Doc Imaging System (BioRad).

[1] = system: cleaved PARP and caspase 3 in H1299 cells; experiment: Western blotting, cleaved PARP and caspase 3 (apoptosis); format: cell-based, human; details: H1299, 24 hours of treatment
Description: as §1

A549 cells = experiment: Growth assay (Cell Titer Glo); format: cell-based; details: Homo sapiens; A549, 72 hours, 5% serum; read-out: Growth inhibition IC50
Description: (§2) Cells were plated in half area 96-well microtiter plates (Corning) at a density of 3, 000 cells per well. For drug treatment, cells were treated with compound or DMSO as vehicle (final concentration at 0.2%). For siRNA assays, cells were transfected with siRNAs under the same condition as described above. The effect of treatment on cell growth was measured using the Cell Titer Glo (CTG) assay (Promega) as specified by the measurement of viable cells based on ATP content after 72 hours standard culture. All growth assay involving NSCLCs and NHAECs were performed in the presence of 5% serum.
(§3) Drug effects on cell growth and IC50 values were determined as described previously. All experiments were repeated a minimum of three times to determine the reproducibility of the results. All error bars represent standard error of the mean (SEM). Statistical analysis was performed using Student’s t test or other as indicated. A P value of <0.05 was considered statistically significant.

H460 cells = experiment: Growth assay (Cell Titer Glo); format: cell-based; details: Homo sapiens, NCI-H460; H460, 72 hours, 5% serum; read-out: Growth inhibition IC50
Description: as §2, §3

SMILES | effect on PQ10-induced phosphorylation of β-catenin at pSer552 (β-catenin in H1299 cells) | effect on PQ10-induced activation of PARP and caspase 3 [1] | pIC50 (A549 cells) | pIC50 (H460 cells)
COC(=O)[C@@]1(OC)C[C@H]2O[C@]1(C)n1c3ccccc3c3c4c(c5c6ccccc6n2c5c31)C(=O)N(C)C4 [KT5823] | partial inhibition | attenuated |  | 
COc1ccc(Cc2nccc3cc(OC)c(OC)cc23)cc1OC [Papaverine] |  |  | 4.76 | 4.79
O=S(=O)(NCCNC/C=C/c1ccc(Br)cc1)c1cccc2cnccc12 [H89] | partial inhibition | ineffective |  | 
